{"source": "patent US20170181431A1", "about": "“HERBICIDAL COMPOSITIONS CONTAINING 4-AMINO-3-CHLORO-6-(4-CHLORO-2-FLUORO-3-METHOXYPHENYL) PYRIDINE-2-CARBOXYLIC ACID OR A DERIVATIVE THEREOF AND A CELL MEMBRANE DISRUPTOR HERBICIDE OR A DERIVATIVE THEREOF” (Dow AgroSciences LLC, priority 2015, published 2017)", "system": "Conyza species (fleabane, ERISS)", "assay": "Field trial of post-emergence (foliar) herbicidal activity, percent weed control visually rated", "format": "in vivo", "settings": "Cmpd 1 alone 5 g ae/ha, Table 2", "description": "Treatments consisted of the methyl ester of 4-amino-3-chloro-6-(4-chloro-2-fluoro-3-methoxyphenyl)pyridine-2-carboxylic acid (Cmpd 1) tankmixed with saflufenacil or paraquat. The form of compound of formula (I) was applied on an acid equivalent basis, and saflufenacil and paraquat were applied on an active ingredient basis. Saflufenacil was applied as a commercial formulation containing 700 grams per kilogram (g/kg). Paraquat was applied as a commercial formulation containing 200 g/L.\nField trials were conducted under standard field conditions. Plot sizes varied from 2 meters (m) wide by 5 m long. Treatments were applied with small plot backpack sprayers, using pressurized carbon dioxide (CO2) as propellant. Pressure varied from 40-45 pounds per square inch (PSI), with spray tips typically of a Flat Fan type applying water diluent at 100 liters per hectare (L/ha). Boom size was 2 m in width. Weed sizes varied, but all treatments were applied as post-emergence treatments to weeds from 2 leaf to 2 tiller growth stages varying from 2-15 inches in height. No additional adjuvant was mixed with the treatments applied in the field.\nResults in Tables 1 to 2 are field trial results for foliar applied compositions. The values reported are percent (%) control visually rated. The predicted percent (%) weed contol was determined using Colby's equation.\nThe following abbreviations are used in Tables 1 to 2: ERISS=Conyza species (fleabane, ERISS) g ae/ha=grams acid equivalent per hectare g ai/ha=grams active ingredient per hectare Mean % weed control=observed value of percent (%) control rated visually Predicted mean % weed control=expected value of percent (%) control as calculated by Colby's equation Cmpd 1=methyl 4-amino-3-chloro-6-(4-chloro-2-fluoro-3-methoxyphenyl)pyridine-2-carboxylate, halauxifen-methyl, or ARYLEX® DAA=days after application"}
{"compound": "COC(=O)c1nc(-c2ccc(Cl)c(OC)c2F)cc(N)c1Cl", "note": "[Cmpd 1, methyl 4-amino-3-chloro-6-(4-chloro-2-fluoro-3-methoxyphenyl)pyridine-2-carboxylate]", "values": [{"measurement": "Cmpd 1 Mean % weed control", "setting": "17DAA", "value": 33.75, "unit": "%"}, {"measurement": "Cmpd 1 Mean % weed control", "setting": "28DAA", "value": 33.75, "unit": "%"}, {"measurement": "Cmpd 1 Mean % weed control", "setting": "43DAA", "value": 40, "unit": "%"}]}
